Columns and labels:
Colletotrichum acutatum = assay: Example 1: pre-plant dip of cv. Portola baby strawberry plants with natamycin, fruit yield after 6 weeks; assay type: in vivo
Experimental: Baby strawberry plants of cv. Portola were either inoculated or non-inoculated (naturally infected). Inoculation was done by dipping plants for 4 minutes in conidial suspensions of Colletotrichum acutatum, and then drip-dried. Plants were then stored for 8 h at 20° C., or 3 days at 5° C. […] The plants were then planted in different rows for each treatment, one feet apart and the yield was evaluated for fruit yield after 6 weeks. See below Table 1 for results.

[1] = test system: azoxystrobin (QoI)-sensitive (S) strains of Colletotrichum acutatum; assay: Example 2: pre-plant dip of strawberry plants inoculated with azoxystrobin-sensitive isolate, field trial; assay type: in vivo; details: for DI: Disease incidence (average) / DS: Disease severity, by ranking (average) 0-4: after four weeks; for W: Weight (average) / Y: Yield (average): after six weeks
[2] = test system: azoxystrobin (QoI)-resistant (R) strains of Colletotrichum acutatum; assay: Example 2: pre-plant dip of strawberry plants inoculated with azoxystrobin-resistant isolate, field trial; assay type: in vivo; details: for DI: Disease incidence (average) / DS: Disease severity, by ranking (average) 0-4: after four weeks; for W: Weight (average) / Y: Yield (average): after six weeks
[3] = test system: anthracnose (Colletotrichum acutatum), naturally infected plants; assay: Example 2: pre-plant dip of naturally infected strawberry plants (Nursery 2), field trial; assay type: in vivo; details: cv. Portola (Nursery 2); for DI: Disease incidence (average) / DS: Disease severity, by ranking (average) 0-4 / LSI: Leaf spot incidence (average): after four weeks; for W: Weight (average) / Y: Yield (average): after six weeks
[4] = test system: mixture of four Colletotrichum acutatum isolates, two sensitive and two resistant to QoI fungicides; assay: Example 3: dip treatments on Florida Radiance transplants for control of Colletotrichum acutatum; assay type: in vivo; details: cv. Florida Radiance; for Plant diameter / Plant diameter compared to the non-treated control (in words): 35 DAP; for Yield (marketable fruit): seven harvests
[5] = test system: strawberry plants (two plant cultivars); details: in vivo
Experimental: Plants were evaluated periodically for disease and phytotoxicity over the course of the trial. As plants develop disease symptoms, fungal isolations were done from diseased tissue to validate the symptoms as anthracnose. For this, pieces of crown and leaf tissues from the margins between diseased and healthy tissue were surface-sterilized with sodium hypochlorite and rinsed with sterile, distilled water. A small sample of this plant tissue was removed, cut into pieces, and plated onto 10-cm potato dextrose agar media plates amended with ampicillin and rifampicin to inhibit bacterial growth. Plates were incubated for 5-6 days at 25° C., and fungal colonies were identified using morphological characteristics. A subset of fungal colonies was confirmed by PCR using species-specific primers for Colletotrichum acutatum (Förster and Adaskaveg, Phytopathology (1999) 89 1056-1065).

[6] = test system: fungi within the Ascomycota (e.g. Botrytis and Colletotrichum spp.) and Zygomycota (e.g. Rhizopus stolonifer); details: for most of these organisms; cited from earlier work
[7] = cv. Fronteras (Nursery 1), natamycin 13.3 oz. per 150 gal.
[8] = cv. Fronteras (Nursery 1), natamycin 26.6 oz. per 150 gal.
[9] = cv. Portola (Nursery 1), natamycin 13.3 oz. per 150 gal.
[10] = cv. Portola (Nursery 1), natamycin 26.6 oz. per 150 gal.
[11] = natamycin 13.3 oz. per 150 gal.
[12] = natamycin 26.6 oz. per 150 gal.
[13] = natamycin 26.6 fl. oz./100 gal. (dipped in the field)
[14] = natamycin 26.6 fl. oz./100 gal. (dipped indoors to avoid sunlight)
[15] = cv. Fronteras (Nursery 1), 4 min dip, rates/150 gal: Actinovate 24 oz., azoxystrobin 8 fl. oz., Bravo 24 fl. oz., Switch 8 oz.
[16] = cv. Fronteras (Nursery 1), rates/150 gal: Actinovate 24 oz., azoxystrobin 8 fl. oz., Bravo 24 fl. oz., Switch 8 oz.
[17] = cv. Portola (Nursery 1), 4 min dip, rates/150 gal: Actinovate 24 oz., azoxystrobin 8 fl. oz., Bravo 24 fl. oz., Switch 8 oz.
[18] = cv. Portola (Nursery 1), rates/150 gal: Actinovate 24 oz., azoxystrobin 8 fl. oz., Bravo 24 fl. oz., Switch 8 oz.
[19] = 4 min dip, rates/150 gal: Actinovate 24 oz., azoxystrobin 8 fl. oz., Bravo 24 fl. oz., Switch 8 oz.
[20] = rates/150 gal: Actinovate 24 oz., azoxystrobin 8 fl. oz., Bravo 24 fl. oz., Switch 8 oz.

**Q.** Which results are given for C[C@@H]1C/C=C/C=C/C=C/C=C/[C@H](O[C@@H]2O[C@H](C)[C@@H](O)[C@H](N)[C@@H]2O)C[C@@H]2O[C@](O)(C[C@@H](O)C[C@H]3O[C@@H]3/C=C/C(=O)O1)C[C@H](O)[C@H]2C(=O)O [Natamycin, natamycin]?
**A.** Average weight per individual strawberry (Colletotrichum acutatum; natamycin 13.3 oz./150 gallon): 8.7 g; Average weight per individual strawberry (Colletotrichum acutatum; natamycin 26.6 oz./150 gallon): 8.7 g; DI: Disease incidence (average) [1, 7]: 37.5%; DS: Disease severity, by ranking (average) 0-4 [1, 7]: 0.8; DI: Disease incidence (average) [1, 8]: 32.5%; DS: Disease severity, by ranking (average) 0-4 [1, 8]: 0.6; W: Weight (average) [1, 7]: 8.14 g per fruit; Y: Yield (average) [1, 7]: 161.8 g per treated plot; W: Weight (average) [1, 8]: 8.31 g per fruit; Y: Yield (average) [1, 8]: 161.1 g per treated plot; DI: Disease incidence (average) [1, 9]: 32.5%; DS: Disease severity, by ranking (average) 0-4 [1, 9]: 0.8; DI: Disease incidence (average) [1, 10]: 27.5%; DS: Disease severity, by ranking (average) 0-4 [1, 10]: 0.4; W: Weight (average) [1, 9]: 7.9 g per fruit; Y: Yield (average) [1, 9]: 224.1 g per treated plot; W: Weight (average) [1, 10]: 7.0 g per fruit; Y: Yield (average) [1, 10]: 188.4 g per treated plot; DI: Disease incidence (average) [2, 7]: 37.5%; DS: Disease severity, by ranking (average) 0-4 [2, 7]: 0.8; DI: Disease incidence (average) [2, 8]: 54.2%; DS: Disease severity, by ranking (average) 0-4 [2, 8]: 1.3; W: Weight (average) [2, 7]: 8.9 g per fruit; Y: Yield (average) [2, 7]: 261.7 g per treated plot; W: Weight (average) [2, 8]: 9.3 g per fruit; Y: Yield (average) [2, 8]: 145.2 g per treated plot; DI: Disease incidence (average) [2, 9]: 82.5%; DS: Disease severity, by ranking (average) 0-4 [2, 9]: 2.2; DI: Disease incidence (average) [2, 10]: 29.4%; DS: Disease severity, by ranking (average) 0-4 [2, 10]: 0.4; W: Weight (average) [2, 9]: 7.9 g per fruit; Y: Yield (average) [2, 9]: 112.4 g per treated plot; W: Weight (average) [2, 10]: 8.6 g per fruit; Y: Yield (average) [2, 10]: 235.0 g per treated plot; efficacy when plants are inoculated with azoxystrobin-resistant isolates (in words) ([2]; pre-plant dip): very effective; DI: Disease incidence (average) [3, 11]: 57.5%; DS: Disease severity, by ranking (average) 0-4 [3, 11]: 0.9; LSI: Leaf spot incidence (average) [3, 11]: 0.6 number of spots; DI: Disease incidence (average) [3, 12]: 53.7%; DS: Disease severity, by ranking (average) 0-4 [3, 12]: 0.7; LSI: Leaf spot incidence (average) [3, 12]: 0.4 number of spots; W: Weight (average) [3, 11]: 8.7 g per fruit; Y: Yield (average) [3, 11]: 714.4 g per treated plot; W: Weight (average) [3, 12]: 8.7 g per fruit; Y: Yield (average) [3, 12]: 742.5 g per treated plot; Plant diameter [4, 13]: 5.7 bcd in; Plant diameter [4, 14]: 5.9 abc in; Plant diameter compared to the non-treated control (in words) ([4]; natamycin dipped in the field: excepted from the treatments that significantly increased plant diameter): With the exception of natamycin (dipped in the field); Plant diameter compared to the non-treated control (in words) ([4]; natamycin: treatment dipped indoors): significantly increased plant diameter; Disease incidence (diseased plants, dead+wilted) ([4]; 42 DAP, natamycin 26.6 fl. oz./100 gal. (dipped in the field)): 2.5 de %; Disease incidence (diseased plants, dead+wilted) ([4]; 42 DAP, natamycin 26.6 fl. oz./100 gal. (dipped indoors to avoid sunlight)): 0.0 e %; Disease incidence (diseased plants, dead+wilted) ([4]; 42 DAP, natamycin 26.6 fl. oz./100 gal. (dipped indoors to avoid sunlight), listed as natamycin): 0.0%; Disease incidence compared to the non-treated control (in words) ([4]; 42 DAP, natamycin: both treatments (field and indoors)): reduced disease incidence compared to the non-treated control; Yield compared to the non-treated control (in words) ([4]; natamycin: dipped in the field): higher yields than the non-treated control; Yield (marketable fruit) [4, 13]: 2924 abc lb./A; Yield (marketable fruit) [4, 14]: 2547 bcde lb./A; phytotoxicity [5]: no phytotoxicity is observed; minimum inhibitory concentration [6]: < 10 ppm

**Q.** For CO/C=C(/C(=O)OC)c1ccccc1Oc1cc(Oc2ccccc2C#N)ncn1 [Azoxystrobin], which “DI: Disease incidence (average)” value [1, 15] is on record?
**A.** 7.5%

**Q.** And the “DS: Disease severity, by ranking (average) 0-4” value (shortened to “DS: Disease severity, by ranking”) [1, 15]?
**A.** 0.2

**Q.** And the “W: Weight (average)” value [1, 16]?
**A.** 10.68 g per fruit

**Q.** And the “Y: Yield (average)” value [1, 16]?
**A.** 378.1 g per treated plot

**Q.** What about the “DI: Disease incidence (average)” value [1, 17] of the same molecule?
**A.** 33.1%

**Q.** And the “DS: Disease severity, by ranking” value [1, 17]?
**A.** 0.8

**Q.** And the “W: Weight (average)” value [1, 18]?
**A.** 6.4 g per fruit

**Q.** What about the “Y: Yield (average)” value [1, 18] of the same molecule?
**A.** 157.7 g per treated plot

**Q.** What about the “DI: Disease incidence (average)” value [2, 15] of the same molecule?
**A.** 100.0%

**Q.** And the “DS: Disease severity, by ranking” value [2, 15]?
**A.** 2.9

**Q.** What about the “W: Weight (average)” value [2, 16] of the same molecule?
**A.** 7.9 g per fruit

**Q.** What about the “Y: Yield (average)” value [2, 16] of the same molecule?
**A.** 16.4 g per treated plot

**Q.** And the “DI: Disease incidence (average)” value [2, 17]?
**A.** 100.0%

**Q.** What about the “DS: Disease severity, by ranking” value [2, 17] of the same molecule?
**A.** 4.0

**Q.** What about the “W: Weight (average)” value [2, 18] of the same molecule?
**A.** 0.0 g per fruit

**Q.** And the “Y: Yield (average)” value [2, 18]?
**A.** 0.0 g per treated plot

**Q.** And the “DI: Disease incidence (average)” value [3, 19]?
**A.** 41.7%

**Q.** And the “DS: Disease severity, by ranking” value [3, 19]?
**A.** 0.5

**Q.** And the “LSI: Leaf spot incidence (average)” value [3, 19]?
**A.** 0.5 number of spots

**Q.** What about the “W: Weight (average)” value [3, 20] of the same molecule?
**A.** 9.8 g per fruit

**Q.** What about the “Y: Yield (average)” value [3, 20] of the same molecule?
**A.** 1114.8 g per treated plot
